Assay results: patent US5869515A, “1,3-dihydro-2H-imidazol-2-one compounds” (Janssen Pharmaceutica N.V., priority 1995, dated 1999)

Columns and labels:
[1] = system: dextran-induced oedema formation in mouse ear; assay: Dextran-Induced Oedema Formation in Mouse Ear; format: in vivo, male Swiss mice; settings: oral, mice, 1 h before i.v. dextran T500 and pontamine sky-blue, compared with background extravasation, read-out: % inhibition of the extravasation of the dye
Protocol: Dextran-Induced Oedema Formation in Mouse Ear
Systemic injection of dextran T500 in normal, non-sensitized mice elicits increased vascular permeability, leading to extravasation and oedema of the extremities. When dextran is injected together with a blue dye, blueing of the ears is the most prominent feature of oedematous response.
Male Swiss mice weighing 24-26 g were orally pretreated with the test compound dissolved in PEG-200 at different concentrations or solvent. One hour later, the mice were given an intravenous injection with an isotonic saline solution containing 12 mg/ml dextran T500 and 2.6 mg/ml pontamine sky-blue dye, in a volume of 0.1 ml per 10 g body weight. One hour and forty-five minutes later, the animals are sacrificed by ether and their ears removed. Extraction and quantification of the extravasated dye is done as described by Van Wauwe and Goossens (Drug Dev. Res. 1986, 8, 213-218).
The extravasation of the dye is characterized by the blueing value which is defined as the concentration of the extracted dye in both ears. The background blueing value was determined once as the mean blueing value obtained by injecting a group of mice with a saline solution containing only dextran T500 and the blue dye. Table 2 lists the percentage inhibition of the extravasation of the dye when compared with the background extravasation of the dye when the test compound was administered at a dose of 5 mg/kg.

[2] = biological target: T1, recombinant human MNL phosphodiesterase type IV B (Homo sapiens, UniProt Q07343); assay: Inhibition of Recombinant Human Mononuclear Lymphocyte (MNL) Phosphodiesterase Type IV B Produced in Insect Cells with a Baculovirus Vector; format: biochemical; settings: 0.8 μM 3H-cAMP, pH 8, 10 min, 37° C., 1% DMSO; read-out: IC50 value, recombinant human MNL phosphodiesterase PDE IV B
T1 construct: made in house
Protocol: Inhibition of Recombinant Human Mononuclear Lymphocyte (MNL) Phosphodiesterase Type IV B Produced in Insect Cells with a Baculovirus Vector The alleviating and/or curing effect of the instant compounds on allergic and atopic diseases was assessed by an in vitro assay system to detect an inhibiting effect on the recombinant human MNL phosphodiesterase type IV B. Seventy-two hours after infection with recombinant baculovirus, the insect cells were harvested and pelleted at 500 g for 5 minutes. The cells were lysed in 10 ml lysis-buffer consisting of 20 mM Tris, 10 mM EGTA, 2 mM Na2 EDTA, 1% Triton-X-100, 1 mM Na3 VO4, 10 mM NaF, 2 μg/ml of leupeptine, pepstatine and aprotinine, 0.3 μg/ml benzamidine and 100 μg/ml TPCK pH 7.5. After 5 minutes on ice, solubilized cells were centrifuged at 4000 rpm for 15 minutes at 4° C. The resulting supernatant was filtered through a 0.45 μm filter (Millipore) and brought to TBS buffer (50 mM Tris, 150 mM NaCl pH 7.4). […] The inhibiting effect of the present compounds on recombinant human MNL phosphodiesterase PDE IV B was measured at different concentrations of the instant compounds. The IC50 values (expressed in M) were calculated graphically from the thus obtained inhibition values.

T1 sequence (Q07343 1-564 isoform Q07343-2): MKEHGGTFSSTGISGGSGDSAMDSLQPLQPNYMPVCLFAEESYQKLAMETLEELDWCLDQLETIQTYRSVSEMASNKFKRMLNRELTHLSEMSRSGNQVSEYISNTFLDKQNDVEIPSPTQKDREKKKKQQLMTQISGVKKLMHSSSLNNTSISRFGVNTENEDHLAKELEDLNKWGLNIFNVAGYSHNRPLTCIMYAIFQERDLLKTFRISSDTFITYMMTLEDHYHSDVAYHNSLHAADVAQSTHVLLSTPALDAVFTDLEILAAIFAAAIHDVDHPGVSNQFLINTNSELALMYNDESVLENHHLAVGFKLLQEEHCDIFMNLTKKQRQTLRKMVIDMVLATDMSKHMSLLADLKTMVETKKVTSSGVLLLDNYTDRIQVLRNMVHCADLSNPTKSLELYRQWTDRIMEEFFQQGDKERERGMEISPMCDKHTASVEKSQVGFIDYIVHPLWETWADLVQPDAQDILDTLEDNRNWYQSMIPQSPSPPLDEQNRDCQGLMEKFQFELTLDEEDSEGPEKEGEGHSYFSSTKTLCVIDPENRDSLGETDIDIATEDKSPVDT

COc1ccc(C(=O)CN2CCN(C3CCCCO3)C2=O)cc1OC (racemic) [Compound 8, (±)-1-[2-(3,4-dimethoxyphenyl)-2-oxoethyl]-3-(tetrahydro-2H-pyran-2-yl)-2-imidazolidinone]
inhibition in vivo at 5 mg/kg [1]: 5.2%

COc1ccc(C(=O)Cn2ccnc2O)cc1OC1CCCC1 [Compound 1, 1-[2-[3-(cyclopentyloxy)-4-methoxyphenyl]-2-oxoethyl]-1,3-dihydro-2H-imidazol-2-one]
inhibition in vivo at 5 mg/kg [1]: 48.3% | IC50 [2]: < 1000 nM

CCOC(=O)n1ccn(CC(=O)c2ccc(OC)c(OC3CCCC3)c2)c1=O [Compound 2, ethyl 3-[2-[3-(cyclopentyloxy)-4-methoxphenyl]-2-oxoethyl]-2,3-dihydro-2-oxo-1H-imidazole-1-carboxylate]
inhibition in vivo at 5 mg/kg [1]: 55.6%

C=C(Cn1cc[nH]c1=O)c1ccc(OC)c(OC2CCCC2)c1 [Compound 4, 1-[2-[3-(cyclopentyloxy)-4-methoxy-phenyl]-2-propenyl]-1,3-dihydro-2H-imidazol-2-one]
IC50 [2]: < 1000 nM

COc1ccc(C(=O)Cn2ccn(Cc3ccccc3)c2=O)cc1OC [Compound 5, 1-[2-(3,4-dimethoxyphenyl)-2-oxoethyl]-1,3-dihydro-3-(phenylmethyl)-2H-imidazol-2-one]
inhibition in vivo at 5 mg/kg [1]: 28.7%

COc1ccc(C(=O)CN2CCNC2=O)cc1OC [Compound 7, 1-[2-(3,4-dimethoxyphenyl)-2-oxoethyl]-2-imidazolidinone]
inhibition in vivo at 5 mg/kg [1]: 22.6%

COc1ccc(/C(=C\C#N)CN2CCNC2=O)cc1OC [Compound 9, (E)-3-(3,4-dimethoxyphenyl)-4-(2-oxo-1-imidazolidinyl)-2-butenenitrile]
inhibition in vivo at 5 mg/kg [1]: 53.8%

COc1ccc(Cn2ccn(CC(=O)c3ccc(OC)c(OC4CCCC4)c3)c2=O)cc1 [Compound 10, 1-[2-[3-(cyclopentyloxy)-4-methoxyphenyl]-2-oxoethyl]-1,3-dihydro-3-[(4-methoxyphenyl)methyl]-2H-imidazol-2-one]
inhibition in vivo at 5 mg/kg [1]: 56%

COc1ccc(C(=O)Cn2ccn(C(c3ccccc3)c3ccccc3)c2=O)cc1OC [Compound 11]
inhibition in vivo at 5 mg/kg [1]: 34.6%

COc1ccc(Cn2ccn(CC(=O)c3ccc(OC)c(OC)c3)c2=O)c(OC)c1 [Compound 12]
inhibition in vivo at 5 mg/kg [1]: 26.4%

COc1ccc(C(=O)CN2CCNC2=O)cc1OC1CCCC1 [Compound 13]
inhibition in vivo at 5 mg/kg [1]: 27.9%

CCOC(=O)N1CCN(CC(=O)c2ccc(OC)c(OC)c2)C1=O [Compound 15]
inhibition in vivo at 5 mg/kg [1]: 19.2%
